The text below walks through data of paper PMC8805119, “Spatial Distribution and Stability of Cholinesterase Inhibitory Protoberberine Alkaloids from Papaver setiferum” (Journal of Natural Products, 2021).

Where two headings read alike, the source gives them in different places. A value given as a limit tells only on which side of the number the result lay.

For data set [1] the following is noted: C. majus material; cited from earlier work.
Data set [2] concerns the target T1, electric eel acetylcholinesterase (eeAChE) (Electrophorus electricus, UniProt O42275).
T1 construct: purchased Sigma-Aldrich
The experiment in a line: Cholinesterase inhibition assay (Ellman method), eeAChE. It is filed as biochemical. Particulars: for Ki: inhibition constant, Dixon plot, substrate 0.125, 0.25, 0.5 mM. Here is the method:
(§1) Cholinesterase activities were measured by the Ellman method[58] adapted for 96-well microtiter plates, as previously described.[59] The compounds were first screened for the IC50 determination, and for those with IC50 < 200 μM, the inhibitory constants (Ki) were determined. Stock solutions of the tested compounds (5 mg/mL) and of the positive control (1 mg/mL neostigmine bromide, Sigma-Aldrich, St. Louis, MO, USA) were prepared in 100% MeOH. These solutions were added to the wells and gradually diluted in 100 mM potassium phosphate buffer (pH 7.4) to the final volume of 50 μL. Acetylthiocholine chloride and 5,5′-dithiobis-2-nitrobenzoic acid were then dissolved in the same buffer to the respective final concentrations of 1 and 0.5 mM and added (100 μL) to the wells of the microtiter plates. eeAChE, hrAChE, or hsBChE (all Sigma-Aldrich) were dissolved in the same buffer to 0.0075 U/mL. A 50 μL amount of each of the cholinesterases was added to start the reactions, which were followed spectrophotometrically at 405 nm and 25 °C for 5 min using a kinetic microplate reader (Dynex Technologies Inc., Chantilly, VA, USA). Blank reactions without the inhibitors were run in the presence of the appropriate dilution of MeOH in 100 mM potassium phosphate buffer (pH 7.4). The concentrations of the compounds inducing 50% inhibition of enzyme activity (IC50) were determined and expressed as mean values ± SEM. To determine the inhibition constants (Ki), the kinetics were monitored using three different final substrate concentrations (0.125, 0.25, 0.5 mM). Each measurement was repeated at least three times. Data were analyzed using OriginPro software (OriginPro 2020, OriginLab Corporation, Northampton, MA, USA).

In data set [3] the target is T2, human recombinant acetylcholinesterase (hrAChE) (Homo sapiens, UniProt P22303).
T2 construct: purchased Sigma-Aldrich
The experiment in a line: Cholinesterase inhibition assay (Ellman method), hrAChE. It is filed as biochemical. The settings on record: for Ki: inhibition constant, Dixon plot, substrate 0.125, 0.25, 0.5 mM. Here is the method: as §1
(In general: DTNB colorimetry detects thiols as they appear.)

In data set [4] the target is T3, horse serum butyrylcholinesterase (hsBChE) (Equus caballus, UniProt P81908).
T3 construct: purchased Sigma-Aldrich; host or cells: horse serum
The experiment in a line: biochemical. It is filed as biochemical. The settings on record: for Ki: inhibition constant, Dixon plot, substrate 0.125, 0.25, 0.5 mM; for IC50: means ± SEM of three independent measurements; for selectivity for BChE: hsBChE versus AChEs. Here is the method: as §1

A short description of data set [5]: Storage stability of isolated compounds (oxidation). It is filed as physicochemical. Here is the method: These findings are of interest as they contrast with observations from the present work. In this study, no special precautions were taken in the isolation of 1 and 2, although the laboratory studies were conducted relatively quickly: only 9 days elapsed from the collection of fresh plants to the acquisition of NMR data (see Supporting Information, Figure S31 for a detailed isolation timeline). […] Comparison of the present methodology with the approaches used by Tsai and Lee[25] and Paulsen et al.[26] has led to the hypothesis that the use of a strong acid (0.1% TFA, pH ∼2.0) during HPLC may be an important component of compound stability. In the present investigation, 0.1% TFA was used in both solvents during HPLC purification, and the same was done by Tsai and Lee. Conversely, Paulsen et al. opted for a three-solvent system of 10 mM (NH4)2SO3, 0.2% triethylamine adjusted with acetic acid to pH 4.0 (solvent A), CH3CN (solvent B), and MeOH (solvent C). Their observation that 13,14-dihydrocoptisine oxidized repeatedly after HPLC leads to the present conclusion that these conditions may have been insufficiently acidic to stabilize the compound. However, this was not tested in the current work. Further, given the varied substitution of the aromatic motifs in these compounds, the role these groups play upon stability cannot be yet ascertained. […]

Data set [6] in a line: Protoberberine oxidation analysis in P. setiferum capsules (oven 40 °C vs freezer -20 °C, LC-MS). It is filed as physicochemical, Papaver setiferum. The settings on record: 2 weeks. Here is the method: The alkaloid analysis was based on De Vos et al. (2007).[57]P. setiferum material was collected at four time points: (1) approximately 3 days before flowering, (2) during flowering, (3) approximately 2 weeks after flowering, and (4) approximately 4 weeks after flowering (by which point the flowers had dried and turned brown). At each collection time, a sample of the aerial parts (three separate stems, each with several leaves and a capsule) was collected and stored at −20 °C. The samples were later separated into capsules, leaves, and stems and ground into a powder using a mortar and pestle. One hundred milligrams (±5 mg) of each was transferred into an Eppendorf tube, and each weight was recorded. Cold MeOH (0.1% FA) was added to each in a 1:10 w/v ratio, and the tubes were sonicated for 30 min. The samples were centrifuged for 5 min at 13 000 rpm, and the supernatant was filtered (0.2 μm). A pooled sample was prepared by taking 20 μL from each sample and combining into a single vial. All samples were diluted 1:10 in Milli-Q water prior to LC-MS analysis. The samples were randomly ordered for LC-MS, with the pooled sample run interspaced after every fourth sample. An injection volume of 2 μL was used for each sample. The solvents used were 5% CH3CN (0.1% FA) (solvent A) and 95% CH3CN (0.1% FA) (solvent B). The column used was a Phenomenex Kinetex XB-C18 (2.6 μm, 100 Å, 3.0 × 100 mm) with a linear solvent gradient from 15% to 50% solvent B over 20 min. Alkaloids were identified by comparison of retention times with authentic standards.
From three P. setiferum capsules [taken from time point (1) in the time series analysis], two lots of 100 ± 5 mg of material were weighed into Eppendorf tubes. One set of samples was stored with the lids open in the oven at 40 °C, while the others were stored in the freezer at −20 °C. After 2 weeks, the samples were analyzed by LC-MS, as described above.

Where [7] appears, read: AChEs (eeAChE and hrAChE), compared to 2.
Setting [8] is: means ± SEM of three independent measurements, read-out: eeAChE IC50.
The mark [9] stands for this setting: means ± SEM of three independent measurements, read-out: hrAChE IC50.

T1 sequence (O42275 24-633): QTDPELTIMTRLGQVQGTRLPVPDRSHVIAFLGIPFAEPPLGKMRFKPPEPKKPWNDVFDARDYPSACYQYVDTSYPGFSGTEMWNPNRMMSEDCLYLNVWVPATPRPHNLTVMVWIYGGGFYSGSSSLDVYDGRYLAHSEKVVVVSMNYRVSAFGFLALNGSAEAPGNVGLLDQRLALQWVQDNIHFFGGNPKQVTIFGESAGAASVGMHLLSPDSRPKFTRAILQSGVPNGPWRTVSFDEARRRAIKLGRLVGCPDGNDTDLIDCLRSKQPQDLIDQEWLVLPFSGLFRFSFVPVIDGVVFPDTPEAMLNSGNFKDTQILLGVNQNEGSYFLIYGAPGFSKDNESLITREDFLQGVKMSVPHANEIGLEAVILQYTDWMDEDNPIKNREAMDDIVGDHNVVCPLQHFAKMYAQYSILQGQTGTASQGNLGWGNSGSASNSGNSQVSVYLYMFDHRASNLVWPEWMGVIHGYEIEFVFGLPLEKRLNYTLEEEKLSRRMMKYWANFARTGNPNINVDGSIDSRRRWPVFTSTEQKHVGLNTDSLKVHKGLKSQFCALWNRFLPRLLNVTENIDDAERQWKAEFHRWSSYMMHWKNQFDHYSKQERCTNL
T2 sequence (P22303 32-614): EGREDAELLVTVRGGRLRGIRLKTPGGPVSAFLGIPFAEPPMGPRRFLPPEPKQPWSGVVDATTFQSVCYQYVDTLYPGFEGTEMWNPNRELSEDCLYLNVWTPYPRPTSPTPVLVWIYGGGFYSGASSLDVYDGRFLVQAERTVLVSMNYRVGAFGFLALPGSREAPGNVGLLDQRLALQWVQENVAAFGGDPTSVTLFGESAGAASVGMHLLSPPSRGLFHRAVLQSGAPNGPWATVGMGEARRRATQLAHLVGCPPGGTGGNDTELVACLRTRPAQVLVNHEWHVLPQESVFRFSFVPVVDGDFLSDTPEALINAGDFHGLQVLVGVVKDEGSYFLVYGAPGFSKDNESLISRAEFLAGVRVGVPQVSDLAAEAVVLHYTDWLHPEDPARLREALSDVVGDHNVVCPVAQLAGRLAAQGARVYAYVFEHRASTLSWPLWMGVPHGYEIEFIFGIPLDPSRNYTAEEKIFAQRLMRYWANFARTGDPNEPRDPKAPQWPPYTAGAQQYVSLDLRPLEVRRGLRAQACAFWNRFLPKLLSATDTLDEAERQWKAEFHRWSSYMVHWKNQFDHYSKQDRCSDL
T3 sequence (P81908 whole entry): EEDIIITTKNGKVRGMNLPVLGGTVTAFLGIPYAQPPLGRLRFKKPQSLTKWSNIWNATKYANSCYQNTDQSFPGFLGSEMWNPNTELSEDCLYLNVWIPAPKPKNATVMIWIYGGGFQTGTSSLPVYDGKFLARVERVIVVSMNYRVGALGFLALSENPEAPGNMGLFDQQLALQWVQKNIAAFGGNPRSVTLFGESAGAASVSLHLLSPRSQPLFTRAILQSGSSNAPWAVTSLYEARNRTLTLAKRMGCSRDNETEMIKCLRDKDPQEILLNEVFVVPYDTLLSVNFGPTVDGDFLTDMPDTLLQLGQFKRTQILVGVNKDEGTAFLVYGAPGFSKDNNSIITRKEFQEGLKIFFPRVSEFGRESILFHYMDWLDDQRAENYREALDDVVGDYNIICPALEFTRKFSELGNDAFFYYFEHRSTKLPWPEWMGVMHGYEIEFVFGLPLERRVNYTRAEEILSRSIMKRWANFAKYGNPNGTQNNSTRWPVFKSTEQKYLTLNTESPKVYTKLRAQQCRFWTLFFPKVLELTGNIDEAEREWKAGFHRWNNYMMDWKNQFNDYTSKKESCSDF

On to `C1=[N+]2CCc3cc4c(cc3C2Cc2ccc3c(c21)OCO3)OCO4` (stereo not shown) [13,14-dihydrocoptisine], for which the “oxidation after oven-drying of plant material” value in data set [1] was “complete oxidation”.

The Ki is the dissociation constant of the complex between target and ligand, obtained from inhibition or displacement. As usually defined, the IC50 is the concentration needed to halve the response being measured. Consider `COc1cc2c(c(CO)c1OC)C[C@H]1c3c(cc4c(c3OC)OCO4)CC[N+]1=C2.O=C([O-])C(F)(F)F` [Compound 1, 7,8-Didehydromecambridine TFA salt], for which the “lower activity against AChEs when compared to 2” value in data set [2] (setting [7]) is “approximately 3 fold”. In addition, the “lower inhibition constants when compared to 2” value in data set [2] (setting [7]) was ~6 fold. Moreover, the Ki in data set [2] worked out at 7 µM; in data set [3] it was 31 µM; in data set [4] it was 58.5 µM. Further, the half-maximal inhibitory concentration (IC50) in data set [2] (setting [8]) stood at 10.3 ± 1.1 µM; in data set [3] (setting [9]) it was 66.6 ± 2.4 µM; in data set [4], 100 ± 5 µM. Moreover, in data set [5] (TFA salt, 0.7 mg, uncapped glass vial, room temperature, approximately 8 weeks), the “oxidation of dried sample on storage” value is given as “no oxidation to 3”. The “change of concentration in oven-dried capsules versus capsules stored at -20 °C” value (from here on “change of concentration”) in data set [6] is recorded as “minor decrease in concentration”.

`COc1cc2c(c3c1OCOC3)C[C@H]1c3c(cc4c(c3OC)OCO4)CC[N+]1=C2.O=C([O-])C(F)(F)F` [Compound 2, 7,8-Didehydroorientalidine TFA salt]: the Ki in data set [2] came out at 1 µM; in data set [3], 6.3 µM; in data set [4], 47 µM. Also, the figures for the IC50 in data set [2] (setting [8]), in data set [3] (setting [9]) and in data set [4] were 3.4 ± 4.7 µM, 18.9 ± 1.8 µM and 98.5 ± 0.6 µM, respectively. Further, the “change of concentration” value in data set [6] is on record as “minor decrease in concentration”.

Take `COc1cc2c[n+]3c(cc2c(CO)c1OC)-c1c(cc2c(c1OC)OCO2)CC3` [Compound 3, alborine]: the inhibitory constant (Ki) was found to be 3.6 µM in data set [2], 13.2 µM in data set [3] and 43.7 µM in data set [4]. In addition, the results for the IC50 in data set [2] (setting [8]), in data set [3] (setting [9]) and in data set [4] were 6.8 ± 4.5 µM, 20 ± 0.9 µM and 63.1 ± 0.5 µM, respectively. Besides, in data set [6], the “change of concentration” value is listed as “approximately doubling”.

As to `COc1cc2c(c3c1OCOC3)C[C@H]1c3c(cc4c(c3OC)OCO4)CCN1C2` [Compound 4, orientalidine], the Ki was found to be 2 µM in data set [2], 13.7 µM in data set [3] and 35.5 µM in data set [4]. Moreover, the values for the IC50 in data set [2] (setting [8]), in data set [3] (setting [9]) and in data set [4] were 5 ± 1 µM, 19.9 ± 1.1 µM and 104 ± 4 µM, respectively. The “oxidation on standing in an NMR tube” value in data set [5] (1:1 mixture of 4 and 5 (fraction C.12), four months) is “complete oxidation of 4 to 5”.

`COc1cc2c[n+]3c(cc2c2c1OCOC2)-c1c(cc2c(c1OC)OCO2)CC3` [Compound 5, 7,8,13,14-dehydroorientalidine]: the “change of concentration” value in data set [6] was “below the level of detection”.

For `COc1cc2c3c(c1O)-c1c(cccc1OC)C[C@@H]3N(C)CC2` [Compound 6, isothebaine], the values for the Ki in data set [2] and in data set [4] were 68 µM and 0.6 µM, respectively. The IC50 is 260 ± 1 µM in data set [2] (setting [8]), > 342 µM in data set [3] and 2.8 ± 3 µM in data set [4]. The “selectivity for BChE” value in data set [4] is reported as “good selectivity for BChE”.

Turning to `COc1cc2c3c(c1O)-c1c(cccc1OC)C[C@@H]3[N+](C)(C)CC2` [Compound 7, N-methylisothebainium], the concentration for half-maximal inhibition (IC50) in data set [2] (setting [8]) is > 342 µM. For the same compound, the half-maximal inhibitory concentration (IC50) in data set [3] (setting [9]) is > 342 µM. Moreover, in data set [4], the “selectivity for BChE” value is on record as “good selectivity for BChE”, the Ki stood at 2.2 µM and the IC50 was determined as 7.1 ± 2.7 µM.

With `COc1cc(C[C@H]2c3cc(O)c(OC)cc3CC[N+]2(C)C)ccc1O` [Compound 8, N-methylorientaline], the half-inhibitory concentration (IC50) in data set [2] (setting [8]) is > 342 µM; in data set [3] (setting [9]), > 342 µM; in data set [4], 342 ± 3 µM.

With `COc1cc2c(cc1O)[C@H](Cc1ccc(OC)c(OC)c1)[N+](C)(C)CC2` [Compound 9, N-methylcodamine], the IC50 in data set [2] (setting [8]) is > 342 µM; in data set [3] (setting [9]) it was > 342 µM; in data set [4] it was 221 ± 1 µM.

For `COC1=C[C@]23CCN(C)[C@H](Cc4ccc(OC)c(O)c42)C3=CC1=O` [Compound 10, salutaridine], the IC50 in data set [2] and in data set [3] was > 342 µM throughout.

As for `O=[N+]([O-])CCc1ccc(O[C@@H]2O[C@H](CO[C@@H]3OC[C@@H](O)[C@H](O)[C@H]3O)[C@@H](O)[C@H](O)[C@H]2O)cc1` [Compound 11, thalictricoside], the half-maximal inhibitory concentration (IC50) in data set [2] (setting [8]), in data set [3] (setting [9]) and in data set [4] was > 342 µM each time.
